Measurements as given in patent publication US10172846.
Where two headings read alike, the source gives them in different places.

Key:
[1] = rcm bond, 14-membered ring
[2] = rcm bond, Hoveyda-Grubbs 2nd generation
[3] = from (1R,2)-1-{[(1R,2R,4R)-2-(N′-tert-Butoxycarbonyl-N-hept-6-enyl-hydrazinocarbonyl)-4-(7-methoxy-2-phenyl-quinolin-4-yloxy)-cyclopentanecarbonyl]-amino}-2-vinyl-cyclopropanecarboxylic acid ethyl ester; rcm bond; 15-membered ring; Hoveyda-Grubbs II; DCM; 7.0 mM

For CCOC(=O)C12CC1C=CCCCCNC(=O)C1CC(Oc3cc(-c4ccccc4)nc4cc(OC)ccc34)CC1C(=O)N2 (centres unmarked), the ring closure, isolated yield ([1]; from 1-{[2-Hex-5-enylcarbamoyl-4-(7-methoxy-2-phenyl-quinolin-4-yloxy)-cyclopentanecarbonyl]-amino}-2-vinyl-cycloprpanecarboxylic acid ethyl ester, Hoveyda-Grubbs II, DCM, 5.8 mM) was 32%.
Compound CN1CCCCC=CC2CC2(C(=O)NS(=O)(=O)C2CC2)NC(=O)C2CC(O)CC2C1=O (centres unmarked) has a ring closure, isolated yield ([1]; from 4-Hydroxycyclopentane-1,2-dicarboxylic acid 1-[(1-cyclopropanesulphonylaminocarbonyl-2-vinylcyclopropyl)-amide] 2-(hex-5-enyl-methylamide), Hoveyda-Grubbs II, 1,2-dichloroethane, 5.4 mM, 160.0 °C) of 26%.
Compound CCOC(=O)C12CC1C=CCCCCNC(=O)C1CC(Oc3cc(-c4ccccc4)nc4cc(OC)ccc34)CC1C(=O)N2C (centres unmarked) has a ring closure, isolated yield ([1]; from 1-{[2-Hex-5-enyl-methyl-carbamoyl)-4-(7-methoxy-2-phenyl-quinolin-4-yloxy)-cyclopentanecarbonyl]-amino-2-vinyl-cyclopropanecarboxylic add ethyl ester, Hoveyda-Grubbs II, dichloroethane, 2.02 mM) of 37%.
For CCOC(=O)C12CC1C=CCCCCN(C)C(=O)C1CC(OS(=O)(=O)c3ccc(Br)cc3)CC1C(=O)N2 (centres unmarked), the ring closure, isolated yield ([1]; from 1-{(4-(4-Bromo-benzensulphonyloxy-2-(hex-5-enyl-methyl-carbamoyl)-cyclopentanecarbonyl-amino}2-vinyl-cyclopropanecarboxylic add ethyl ester)), Hoveyda-Grubbs I, DCM, 4.2 mM) was 60%.
Compound CCOC(=O)[C@@]12C[C@H]1C=CCCCCN(C)C(=O)[C@@H]1C[C@H](Oc3cc(-c4ccccc4)nc4cc(OC)ccc34)C[C@H]1C(=O)N2 has a ring closure, yield of all isomers ([2]; from C=CCCCCN(C)C(=O)[C@@H]1C[C@H](Oc2cc(-c3ccccc3)nc3cc(OC)ccc23)C[C@H]1C(=O)N[C@]1(C(=O)OCC)C[C@H]1C=C, DCE, 2.02 mM, 83.0 °C) of 37%.
Work on CCOC(=O)[C@@]12C[C@H]1C=CCCCCNC(=O)[C@@H]1C[C@H](Oc3cc(-c4ccccc4)nc4cc(OC)ccc34)C[C@H]1C(=O)N2 yielded a ring closure, yield of all isomers ([2]; from C=CCCCCNC(=O)[C@@H]1C[C@H](Oc2cc(-c3ccccc3)nc3cc(OC)ccc23)C[C@H]1C(=O)N[C@]1(C(=O)OCC)C[C@H]1C=C, DCM, 5.8 mM, 40.0 °C) of 32%.
Work on CCOC(=O)[C@@]12C[C@H]1/C=C\CCCCCN(NC(=O)OC(C)(C)C)C(=O)[C@@H]1C[C@H](Oc3cc(-c4ccccc4)nc4cc(OC)ccc34)C[C@H]1C(=O)N2 yielded a ring closure, yield after HPLC [3] of 70% and a ring closure, yield of all isomers ([2]; from C=CCCCCCN(NC(=O)OC(C)(C)C)C(=O)[C@@H]1C[C@H](Oc2cc(-c3ccccc3)nc3cc(OC)ccc23)C[C@H]1C(=O)N[C@]1(C(=O)OCC)C[C@H]1C=C, DCM, 6.97 mM, 40.0 °C, 16.0 h) of 70%.
